The values below come from patent publication US7696362B2, “Derivatives of artemisinin, and their uses in the treatment of malaria” (Centre National de la Recherche Scientifique, priority 2001, dated 2010).

The nature of data set [1]: Solubility in water. The format is physicochemical. The following applies: hydrochloride.
In data set [2] the test system is sensitive strains of P. falciparum. Description: IC50 vis-à-vis sensitive strains of P. falciparum. The class given is cell-based. The following applies: Plasmodium falciparum.
For data set [3], the system named is resistant (W2) strains of P. falciparum. Description: IC50 vis-à-vis resistant (W2) strains of P. falciparum. The following applies: Plasmodium falciparum. The format is cell-based.
Data set [4] deals with Plasmodium berghei. Description: Peters test on mice infected by Plasmodium berghei. The format is in vivo. The following applies: after 20 days; daily dose of 50 mg/Kg for 4 days.

Compound `C[C@@H]1CC[C@H]2C(CN3CCOCC3)=C(C(F)(F)F)O[C@@H]3OC4(C)CC[C@@H]1[C@]32OO4` yielded a solubility in data set [1] of more than 20 mg/mL.

For the compound `C[C@@H]1CC[C@H]2C(CN3CCN(CCO)CC3)=C(C(F)(F)F)O[C@@H]3OC4(C)CC[C@@H]1[C@]32OO4`, the IC50 in data set [2] came out at 0.017 µM; in data set [3], 0.003 µM. Further, in data set [4], the “survival of mice in the Peters test” value was “all the mice survive”.

The compound `C[C@@H]1CC[C@H]2C(CN3CCN(CCO)CC3)=C(C(F)(F)F)O[C@@H]3OC4(C)CC[C@@H]1[C@]32OO4` [drawing 28] returned a solubility in data set [1] of more than 50 mg/mL.
